# Data published in PubChem BioAssay AID2060483 (Molecular Pharmacology Branch, DTP, NCI, 2025).
# System: K24384-001-R-PDC complex spheroids, viability
# Assay: Anticancer human tumor K24384-001-R-PDC patient-derived pancreatic adenocarcinoma cell line growth inhibition [GQUAD]
# Conditions: for IC50: curve of first compound; for viability, T/C: stronger effect = lower value
# Summary of the method: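 Multi-cell-type spheroids of tumor cells with HUVEC and mesenchymal stem cells, treated with drug combinations. Concentrations descend in half-log steps from near clinical Cmax, or from 10 microM where Cmax is unknown; viability read-out.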
# [1] = second compound 0.0316 µM, first compound 0.0316 µM
# [2] = second compound 0.0316 µM, first compound 0.1 µM
# [3] = second compound 0.0316 µM, first compound 0.316 µM
# [4] = second compound 0.0316 µM, first compound 1 µM
# [5] = second compound 0.0316 µM, first compound 3.16 µM
# [6] = second compound 0.0316 µM, first compound 10 µM
# [7] = second compound 0.1 µM, first compound 0.0316 µM
# [8] = second compound 0.1 µM, first compound 0.1 µM
# [9] = second compound 0.1 µM, first compound 0.316 µM
# [10] = second compound 0.1 µM, first compound 1 µM
# [11] = second compound 0.1 µM, first compound 3.16 µM
# [12] = second compound 0.1 µM, first compound 10 µM
# [13] = second compound 0.316 µM, first compound 0.0316 µM
# [14] = second compound 0.316 µM, first compound 0.1 µM
# [15] = second compound 0.316 µM, first compound 0.316 µM
# [16] = second compound 0.316 µM, first compound 1 µM
# [17] = second compound 0.316 µM, first compound 3.16 µM
# [18] = second compound 0.316 µM, first compound 10 µM
# [19] = second compound 1 µM, first compound 0.0316 µM
# [20] = second compound 1 µM, first compound 0.1 µM
# [21] = second compound 1 µM, first compound 0.316 µM
# [22] = second compound 1 µM, first compound 1 µM
# [23] = second compound 1 µM, first compound 3.16 µM
# [24] = second compound 1 µM, first compound 10 µM
# [25] = second compound 3.16 µM, first compound 0.0316 µM
# [26] = second compound 3.16 µM, first compound 0.1 µM
# [27] = second compound 3.16 µM, first compound 0.316 µM
# [28] = second compound 3.16 µM, first compound 1 µM
# [29] = second compound 3.16 µM, first compound 3.16 µM
# [30] = second compound 3.16 µM, first compound 10 µM
# [31] = second compound 10 µM, first compound 0.0316 µM
# [32] = second compound 10 µM, first compound 0.1 µM
# [33] = second compound 10 µM, first compound 0.316 µM
# [34] = second compound 10 µM, first compound 1 µM
# [35] = second compound 10 µM, first compound 3.16 µM
# [36] = second compound 10 µM, first compound 10 µM
# 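Note: spheroids exposed to compounds for seven days.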
smiles,measurement,setting,value
C#Cc1c(F)ccc2cc(O)cc(-c3ncc4c(N5CC6CCC(C5)N6)nc(OCC56CCCN5CC(F)C6)nc4c3F)c12 (stereo not drawn) + CN(C)c1ccc(Nc2c3ccc(NC(=O)CCN4CCCC4)cc3nc3cc(NC(=O)CCN4CCCC4)ccc23)cc1,IC50,second compound 0.0316 µM,1050 nM
same,IC50,second compound 0.1 µM,1690 nM
same,IC50,second compound 0.316 µM,1520 nM
same,IC50,second compound 1 µM,1780 nM
same,IC50,second compound 3.16 µM,1750 nM
same,IC50,second compound 10 µM,1120 nM
same,"viability, T/C",[1],101%
same,"viability, T/C",[2],84.6%
same,"viability, T/C",[3],68.1%
same,"viability, T/C",[4],51.5%
same,"viability, T/C",[5],32.5%
same,"viability, T/C",[6],14.4%
same,"viability, T/C",[7],109%
same,"viability, T/C",[8],105%
same,"viability, T/C",[9],78.2%
same,"viability, T/C",[10],63.9%
same,"viability, T/C",[11],36.1%
same,"viability, T/C",[12],16%
same,"viability, T/C",[13],87.7%
same,"viability, T/C",[14],108%
same,"viability, T/C",[15],85%
same,"viability, T/C",[16],61.5%
same,"viability, T/C",[17],31.1%
same,"viability, T/C",[18],20.1%
same,"viability, T/C",[19],104%
same,"viability, T/C",[20],82.1%
same,"viability, T/C",[21],90.4%
same,"viability, T/C",[22],58.1%
same,"viability, T/C",[23],38.7%
same,"viability, T/C",[24],17.6%
same,"viability, T/C",[25],89.3%
same,"viability, T/C",[26],85.8%
same,"viability, T/C",[27],92.3%
same,"viability, T/C",[28],61.9%
same,"viability, T/C",[29],35.5%
same,"viability, T/C",[30],14.4%
same,"viability, T/C",[31],92.5%
same,"viability, T/C",[32],77%
same,"viability, T/C",[33],68.5%
same,"viability, T/C",[34],55.1%
same,"viability, T/C",[35],30.1%
same,"viability, T/C",[36],7.21%
CC(C)n1c(=O)n(C)c2cnc3cc(F)c(-c4ccc(OCCCN5CCCCC5)nc4)cc3c21 + Cc1cnc(CNC(=O)c2c(=O)c3ccc(N4CCCN(C)CC4)nc3n3c2sc2ccccc23)cn1,IC50,second compound 0.0316 µM,> 10000 nM
same,IC50,second compound 0.1 µM,> 10000 nM
same,IC50,second compound 0.316 µM,> 10000 nM
same,IC50,second compound 1 µM,1880 nM
same,IC50,second compound 3.16 µM,< 31.6 nM
same,IC50,second compound 10 µM,< 31.6 nM
same,"viability, T/C",[1],68.1%
same,"viability, T/C",[2],77%
same,"viability, T/C",[3],76.9%
same,"viability, T/C",[4],92.9%
same,"viability, T/C",[5],99.9%
same,"viability, T/C",[6],87.7%
same,"viability, T/C",[7],70.1%
same,"viability, T/C",[8],84.2%
same,"viability, T/C",[9],67.1%
same,"viability, T/C",[10],80.6%
same,"viability, T/C",[11],83.5%
same,"viability, T/C",[12],69.3%
same,"viability, T/C",[13],60.3%
same,"viability, T/C",[14],81.4%
same,"viability, T/C",[15],55%
same,"viability, T/C",[16],62%
same,"viability, T/C",[17],71.2%
same,"viability, T/C",[18],52%
same,"viability, T/C",[19],48.1%
same,"viability, T/C",[20],52%
same,"viability, T/C",[21],57.7%
same,"viability, T/C",[22],51.4%
same,"viability, T/C",[23],54.6%
same,"viability, T/C",[24],41.5%
same,"viability, T/C",[25],44.4%
same,"viability, T/C",[26],46%
same,"viability, T/C",[27],46.2%
same,"viability, T/C",[28],58.4%
same,"viability, T/C",[29],42%
same,"viability, T/C",[30],49.7%
same,"viability, T/C",[31],39%
same,"viability, T/C",[32],19.4%
same,"viability, T/C",[33],39.9%
same,"viability, T/C",[34],46.8%
same,"viability, T/C",[35],32.8%
same,"viability, T/C",[36],0.33%
CCc1c2c(nc3ccc(O)cc13)-c1cc3c(c(=O)n1C2)COC(=O)[C@]3(O)CC + Cc1[nH]c2ccc(F)cc2c1-c1nc2c3cccnc3c3ncccc3c2[nH]1,IC50,second compound 0.0316 µM,9.41 nM
same,IC50,second compound 0.1 µM,11.4 nM
same,IC50,second compound 0.316 µM,9.43 nM
same,IC50,second compound 1 µM,11.7 nM
same,IC50,second compound 3.16 µM,6.05 nM
same,IC50,second compound 10 µM,4.02 nM
same,"viability, T/C","second compound 0.0316 µM, first compound 0.000999 µM",96.3%
same,"viability, T/C","second compound 0.0316 µM, first compound 0.00316 µM",62.2%
same,"viability, T/C","second compound 0.0316 µM, first compound 0.00999 µM",53.5%
same,"viability, T/C",[1],38.9%
same,"viability, T/C","second compound 0.0316 µM, first compound 0.0999 µM",29.3%
same,"viability, T/C",[3],27.2%
same,"viability, T/C","second compound 0.1 µM, first compound 0.000999 µM",79.8%
same,"viability, T/C","second compound 0.1 µM, first compound 0.00316 µM",72.7%
same,"viability, T/C","second compound 0.1 µM, first compound 0.00999 µM",51.5%
same,"viability, T/C",[7],33.1%
same,"viability, T/C","second compound 0.1 µM, first compound 0.0999 µM",31.3%
same,"viability, T/C",[9],21.4%
same,"viability, T/C","second compound 0.316 µM, first compound 0.000999 µM",72%
same,"viability, T/C","second compound 0.316 µM, first compound 0.00316 µM",61.3%
same,"viability, T/C","second compound 0.316 µM, first compound 0.00999 µM",47.5%
same,"viability, T/C",[13],41.8%
same,"viability, T/C","second compound 0.316 µM, first compound 0.0999 µM",28.3%
same,"viability, T/C",[15],23.7%
same,"viability, T/C","second compound 1 µM, first compound 0.000999 µM",70.6%
same,"viability, T/C","second compound 1 µM, first compound 0.00316 µM",57.1%
same,"viability, T/C","second compound 1 µM, first compound 0.00999 µM",51.5%
same,"viability, T/C",[19],42.2%
same,"viability, T/C","second compound 1 µM, first compound 0.0999 µM",39.9%
same,"viability, T/C",[21],26.8%
same,"viability, T/C","second compound 3.16 µM, first compound 0.000999 µM",65%
same,"viability, T/C","second compound 3.16 µM, first compound 0.00316 µM",55.5%
same,"viability, T/C","second compound 3.16 µM, first compound 0.00999 µM",41.3%
same,"viability, T/C",[25],38.1%
same,"viability, T/C","second compound 3.16 µM, first compound 0.0999 µM",30.8%
same,"viability, T/C",[27],13.7%
same,"viability, T/C","second compound 10 µM, first compound 0.000999 µM",60.4%
same,"viability, T/C","second compound 10 µM, first compound 0.00316 µM",48.9%
same,"viability, T/C","second compound 10 µM, first compound 0.00999 µM",43.8%
same,"viability, T/C",[31],28.4%
same,"viability, T/C","second compound 10 µM, first compound 0.0999 µM",15.1%
same,"viability, T/C",[33],11%
Cc1cccc(N(C)C(=O)C2C(O)CCN2c2nc(C)cc(C(F)(F)F)c2C#N)c1 (stereo not drawn) + Cc1cnc(CNC(=O)c2c(=O)c3ccc(N4CCCN(C)CC4)nc3n3c2sc2ccccc23)cn1,IC50,second compound 0.0316 µM,> 10000 nM
same,IC50,second compound 0.1 µM,> 10000 nM
same,IC50,second compound 0.316 µM,31.6 nM
same,IC50,second compound 1 µM,< 31.6 nM
same,IC50,second compound 3.16 µM,< 31.6 nM
same,IC50,second compound 10 µM,< 31.6 nM
same,"viability, T/C",[1],105%
same,"viability, T/C",[2],81.5%
same,"viability, T/C",[3],86.5%
same,"viability, T/C",[4],74.2%
same,"viability, T/C",[5],95.6%
same,"viability, T/C",[6],107%
same,"viability, T/C",[7],70%
same,"viability, T/C",[8],73.8%
same,"viability, T/C",[9],57.7%
same,"viability, T/C",[10],69.6%
same,"viability, T/C",[11],72.9%
same,"viability, T/C",[12],71.6%
same,"viability, T/C",[13],53.3%
same,"viability, T/C",[14],56%
same,"viability, T/C",[15],49.2%
same,"viability, T/C",[16],57.4%
same,"viability, T/C",[17],74.9%
same,"viability, T/C",[18],55.8%
same,"viability, T/C",[19],44.1%
same,"viability, T/C",[20],44.4%
same,"viability, T/C",[21],50.5%
same,"viability, T/C",[22],44.6%
same,"viability, T/C",[23],57.5%
same,"viability, T/C",[24],41.7%
same,"viability, T/C",[25],38.1%
same,"viability, T/C",[26],42%
same,"viability, T/C",[27],41.3%
same,"viability, T/C",[28],49.3%
same,"viability, T/C",[29],39.9%
same,"viability, T/C",[30],41.5%
same,"viability, T/C",[31],40.6%
same,"viability, T/C",[32],37.4%
same,"viability, T/C",[33],43.3%
same,"viability, T/C",[34],44.4%
same,"viability, T/C",[35],26.2%
same,"viability, T/C",[36],36.4%
